According to PMC12136037, “Type II kinase inhibitors that target Parkinson’s disease–associated LRRK2” (Science Advances, 2025):

What was measured:
Test in all cases: DSF 100 kinase selectivity screen;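 also: compound tested at 20 µM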
Type in all cases: binding
[1] = target: T1, ~100 representative kinases (Homo sapiens, UniProt Q13043); details: Protein STK4; DSF; average of three replicates
T1 construct: Recombinant protein kinase domains with a concentration of 2 μM
T1 sequence (Q13043 1-487): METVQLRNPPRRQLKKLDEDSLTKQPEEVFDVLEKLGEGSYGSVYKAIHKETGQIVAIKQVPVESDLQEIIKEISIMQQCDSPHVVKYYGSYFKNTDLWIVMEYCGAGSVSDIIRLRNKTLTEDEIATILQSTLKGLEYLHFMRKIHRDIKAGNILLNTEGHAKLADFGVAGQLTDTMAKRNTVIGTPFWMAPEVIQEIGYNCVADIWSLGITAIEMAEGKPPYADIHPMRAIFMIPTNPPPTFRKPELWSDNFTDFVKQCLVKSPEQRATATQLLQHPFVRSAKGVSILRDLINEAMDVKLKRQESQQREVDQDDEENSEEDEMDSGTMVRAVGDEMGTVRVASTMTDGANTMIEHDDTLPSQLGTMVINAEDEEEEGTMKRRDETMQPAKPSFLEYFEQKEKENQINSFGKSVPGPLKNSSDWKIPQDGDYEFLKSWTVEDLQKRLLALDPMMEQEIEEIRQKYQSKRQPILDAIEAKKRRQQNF
How it was run: (§1)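 Each kinase domain, at 2 μM, is mixed with 20 μM test compound and SYPRO Orange in Hepes (20 mM, pH 7.5) with 500 mM NaCl. Temperature is then raised at 3°C/min and fluorescence-monitored unfolding yields the melting temperature change, ΔTm in degrees Celsius.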

[2] = target: T2, ~100 representative kinases (Homo sapiens, UniProt P55201); details: Protein BRPF1; average of three replicates
T2 construct: Recombinant protein kinase domains with a concentration of 2 μM
T2 sequence (P55201 1-1214): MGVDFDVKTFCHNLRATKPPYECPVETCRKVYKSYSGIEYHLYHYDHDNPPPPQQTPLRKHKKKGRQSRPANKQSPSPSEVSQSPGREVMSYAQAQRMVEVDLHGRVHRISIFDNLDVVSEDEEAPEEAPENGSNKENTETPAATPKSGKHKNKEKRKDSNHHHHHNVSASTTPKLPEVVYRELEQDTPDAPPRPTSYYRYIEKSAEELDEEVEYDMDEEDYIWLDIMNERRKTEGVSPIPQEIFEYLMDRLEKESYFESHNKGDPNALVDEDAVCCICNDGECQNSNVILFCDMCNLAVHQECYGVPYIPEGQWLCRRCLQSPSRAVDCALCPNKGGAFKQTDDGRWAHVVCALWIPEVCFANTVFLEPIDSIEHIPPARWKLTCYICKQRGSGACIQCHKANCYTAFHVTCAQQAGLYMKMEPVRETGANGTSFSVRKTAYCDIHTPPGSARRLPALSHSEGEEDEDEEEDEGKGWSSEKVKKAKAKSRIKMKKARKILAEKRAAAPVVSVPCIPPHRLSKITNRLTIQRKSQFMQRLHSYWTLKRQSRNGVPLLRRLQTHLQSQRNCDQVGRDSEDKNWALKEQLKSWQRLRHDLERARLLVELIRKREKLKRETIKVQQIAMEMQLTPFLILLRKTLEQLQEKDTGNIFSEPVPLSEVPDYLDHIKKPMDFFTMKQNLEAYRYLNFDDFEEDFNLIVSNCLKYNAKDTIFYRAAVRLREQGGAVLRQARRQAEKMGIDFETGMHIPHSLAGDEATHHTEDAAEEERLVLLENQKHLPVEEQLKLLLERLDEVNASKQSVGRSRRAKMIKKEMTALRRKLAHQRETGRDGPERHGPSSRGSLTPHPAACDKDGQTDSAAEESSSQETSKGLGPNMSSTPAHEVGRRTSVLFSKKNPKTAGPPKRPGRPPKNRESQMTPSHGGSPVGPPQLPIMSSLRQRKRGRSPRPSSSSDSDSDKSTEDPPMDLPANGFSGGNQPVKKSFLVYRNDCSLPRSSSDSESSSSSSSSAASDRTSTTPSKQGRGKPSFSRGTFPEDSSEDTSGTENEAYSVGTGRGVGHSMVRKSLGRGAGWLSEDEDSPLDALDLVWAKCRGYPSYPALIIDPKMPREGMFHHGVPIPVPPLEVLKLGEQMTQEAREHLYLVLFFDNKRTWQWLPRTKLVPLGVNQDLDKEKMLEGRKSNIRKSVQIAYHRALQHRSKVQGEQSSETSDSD
How it was run: as §1

[3] = target: T3, ~100 representative kinases (Homo sapiens, UniProt Q9H4A3); details: Protein WNK1; DSF; average of three replicates
T3 construct: Recombinant protein kinase domains with a concentration of 2 μM
How it was run: as §1

T3 sequence (Q9H4A3 whole entry, the tested form may be a part): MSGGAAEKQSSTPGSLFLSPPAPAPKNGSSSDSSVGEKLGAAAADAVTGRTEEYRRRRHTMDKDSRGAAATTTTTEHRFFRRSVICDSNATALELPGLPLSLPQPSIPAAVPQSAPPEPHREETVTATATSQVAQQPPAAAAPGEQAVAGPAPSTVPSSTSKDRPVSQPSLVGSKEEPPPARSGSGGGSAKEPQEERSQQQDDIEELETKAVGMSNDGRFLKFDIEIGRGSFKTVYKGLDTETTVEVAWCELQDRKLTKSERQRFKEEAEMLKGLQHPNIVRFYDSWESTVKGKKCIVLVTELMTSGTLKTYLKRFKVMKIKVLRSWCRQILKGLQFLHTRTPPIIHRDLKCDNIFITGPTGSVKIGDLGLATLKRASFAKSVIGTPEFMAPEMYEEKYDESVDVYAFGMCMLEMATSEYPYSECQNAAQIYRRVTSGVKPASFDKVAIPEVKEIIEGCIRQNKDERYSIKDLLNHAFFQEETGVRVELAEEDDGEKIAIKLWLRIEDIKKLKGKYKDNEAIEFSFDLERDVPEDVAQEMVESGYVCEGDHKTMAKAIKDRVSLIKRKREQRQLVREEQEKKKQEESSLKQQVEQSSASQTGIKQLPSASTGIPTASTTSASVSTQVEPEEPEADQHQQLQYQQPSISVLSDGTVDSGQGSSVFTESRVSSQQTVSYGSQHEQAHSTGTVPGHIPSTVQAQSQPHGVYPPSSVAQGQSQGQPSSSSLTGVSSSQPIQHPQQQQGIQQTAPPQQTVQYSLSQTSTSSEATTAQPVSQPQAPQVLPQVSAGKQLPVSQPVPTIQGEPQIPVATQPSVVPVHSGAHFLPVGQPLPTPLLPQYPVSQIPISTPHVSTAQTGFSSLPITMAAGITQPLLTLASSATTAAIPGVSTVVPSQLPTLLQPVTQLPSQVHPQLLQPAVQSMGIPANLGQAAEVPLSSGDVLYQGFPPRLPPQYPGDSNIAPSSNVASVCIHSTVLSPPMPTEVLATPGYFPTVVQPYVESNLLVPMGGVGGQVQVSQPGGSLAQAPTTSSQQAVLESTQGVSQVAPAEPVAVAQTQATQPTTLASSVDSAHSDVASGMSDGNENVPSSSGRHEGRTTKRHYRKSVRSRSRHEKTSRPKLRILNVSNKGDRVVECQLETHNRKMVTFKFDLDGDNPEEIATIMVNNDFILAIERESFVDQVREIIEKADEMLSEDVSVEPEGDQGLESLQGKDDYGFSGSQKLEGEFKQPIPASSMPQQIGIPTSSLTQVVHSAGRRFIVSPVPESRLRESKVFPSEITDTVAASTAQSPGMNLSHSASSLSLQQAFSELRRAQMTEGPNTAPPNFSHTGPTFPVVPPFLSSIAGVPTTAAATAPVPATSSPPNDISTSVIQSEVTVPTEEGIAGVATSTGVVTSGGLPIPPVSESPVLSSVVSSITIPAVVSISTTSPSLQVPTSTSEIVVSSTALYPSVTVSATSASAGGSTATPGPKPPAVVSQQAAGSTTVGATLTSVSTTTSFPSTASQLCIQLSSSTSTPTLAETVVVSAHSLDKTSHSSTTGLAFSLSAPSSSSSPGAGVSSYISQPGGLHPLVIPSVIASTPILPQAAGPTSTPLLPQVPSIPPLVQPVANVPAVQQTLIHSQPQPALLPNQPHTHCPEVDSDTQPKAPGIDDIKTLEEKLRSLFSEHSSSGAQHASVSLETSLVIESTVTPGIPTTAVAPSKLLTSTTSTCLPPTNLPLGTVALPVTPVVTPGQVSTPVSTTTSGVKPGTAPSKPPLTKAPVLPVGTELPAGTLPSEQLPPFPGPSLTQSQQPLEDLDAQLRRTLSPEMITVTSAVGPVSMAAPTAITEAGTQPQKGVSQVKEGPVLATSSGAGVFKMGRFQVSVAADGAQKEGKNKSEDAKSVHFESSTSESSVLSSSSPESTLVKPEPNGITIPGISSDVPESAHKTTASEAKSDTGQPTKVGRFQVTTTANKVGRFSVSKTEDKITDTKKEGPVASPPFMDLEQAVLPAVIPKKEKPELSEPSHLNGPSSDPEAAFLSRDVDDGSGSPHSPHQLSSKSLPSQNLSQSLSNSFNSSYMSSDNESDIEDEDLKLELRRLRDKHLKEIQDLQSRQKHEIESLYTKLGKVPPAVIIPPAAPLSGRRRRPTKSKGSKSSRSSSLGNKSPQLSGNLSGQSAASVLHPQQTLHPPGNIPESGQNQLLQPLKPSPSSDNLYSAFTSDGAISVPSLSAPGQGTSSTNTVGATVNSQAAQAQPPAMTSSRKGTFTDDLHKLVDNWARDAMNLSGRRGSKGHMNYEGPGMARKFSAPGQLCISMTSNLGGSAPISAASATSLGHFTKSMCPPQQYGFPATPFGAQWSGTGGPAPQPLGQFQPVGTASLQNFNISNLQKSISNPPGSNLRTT

Compound `Cn1cc(-c2c[nH]c3ncnc(N4CCOCC4)c23)cc1C#N` [PFE-360] has a dTm [1] of 4.12 K, a dTm [2] of -1.30 K and a dTm [3] of 0.08 K.
